Test results taken from article PMC4794788, “Cell‐free synthesis of isotopically labelled peptide ligands for the functional characterization of G protein‐coupled receptors” (FEBS Open Bio, 2015).
Values joined by “and” are separate entries in the source; they are usually repeats but may differ in a detail not shown here. Equal entries are not always repeated. “Also recorded” adds a separate entry of the source.

How the values were obtained:
[1] = molecular target: T1, human complement 5a receptor (C5aR) (Homo sapiens, UniProt P21730); test: Competition binding against [^3H]‐C5a^CF at C5aR in Sf9 membranes; conditions: read-out: KI (inhibition constant)
T1 construct: 10x His (N); FLAG (N); StrepII (C); made in house; host or cells: Sf9 insect cells (recombinant baculovirus, pOET5 / flashBAC); membrane preparation
T1 sequence (P21730 1-350): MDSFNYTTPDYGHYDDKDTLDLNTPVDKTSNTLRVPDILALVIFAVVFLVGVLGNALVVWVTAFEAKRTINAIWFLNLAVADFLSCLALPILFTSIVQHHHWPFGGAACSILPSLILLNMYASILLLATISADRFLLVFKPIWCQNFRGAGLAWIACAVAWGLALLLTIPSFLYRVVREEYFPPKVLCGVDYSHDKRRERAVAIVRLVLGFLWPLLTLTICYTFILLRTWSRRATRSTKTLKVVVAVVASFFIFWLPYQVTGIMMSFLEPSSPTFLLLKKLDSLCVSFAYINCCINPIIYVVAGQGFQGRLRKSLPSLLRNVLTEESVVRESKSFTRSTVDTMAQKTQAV
Text: The complement 5a receptor was coproduced with Gαi2 in Sf9 insect cells. The cDNA encoding the human complement 5a receptor flanked by an N‐terminal 10x His and FLAG tag and a C‐terminal StrepII tag was cloned into the pOET5 transfer vector (Oxford Expression Technologies, Oxford, UK). pOET5 contains two expression cassettes, the receptor is expressed under the control of a polyhedron promoter; Gαi2 expression is regulated by a p10 promoter. Recombinant baculoviruses were generated with the flashBAC protein expression system (Oxford Expression Technologies) according to manufacturer's instructions. […] Total membrane protein content was determined by the bicinchoninic acid (BCA) method using bovine serum albumin as the standard.
For the determination of binding parameters, membranes containing the respective receptors (10–50 μg total membrane protein) were incubated with cell‐free synthesized tritium‐labelled ligands in varying concentrations. Binding was terminated by rapid filtration over glass fibre filters pretreated with 0.3% polyethyleneimine using a Brandel harvester (Brandel, Alpha Biotech Ltd, Killearn, UK) and analysed by liquid scintillation counting. […]
Data are represented as means ± SEM from three or two independent experiments performed in triplicate and analysed in […] […]

C5aR [2] = conditions: literature comparison; cited from earlier work
Text: Table 1 Binding parameters of cell‐free synthesized radioligands | column: Literature IC50 [nM]

[3] = molecular target: endothelin receptors (Table 1: compared with ETBR); conditions: determined with ^125I‐ET‐1 on receptors from native human tissues; literature comparison; cited from earlier work
[4] = Solubility/precipitation of cell‐free translated peptide in the reaction mix; assay type: physicochemical; conditions: soluble vs pellet fraction
Method: Complement 5a is flanked by an N‐terminal 6x His tag followed by a tobacco etch virus (TEV) cleavage site. […] Expression of both constructs is controlled by a T7 promoter. Cell‐free synthesis was accomplished using a homemade S30 extract from E. coli 6. The extract was prepared from the E. coli A19 strain, described in detail in 6. The T7 RNA polymerase was produced and purified as published 50. Cell‐free reactions were executed in continuous exchange mode by using different sizes of D‐Tube™ dialyzers (Merck Millipore) (mini for reactions containing labelled amino acids and maxi for reactions with unlabeled amino acids) and a 1 : 17 ratio between reaction (RM) and feeding mix (FM). Mini D‐tube™ dialyzers were placed into 2 mL tubes filled with feeding mix, maxi dialyzers into 50 mL tubes, respectively. […] Reactions were incubated at 30 °C, 100 rpm in an Infors Multitron shaker incubator (Infors, Bottmingen, Switzerland) overnight. Cell‐free reactions were analysed by SDS/PAGE using 10% Bis/Tris Novex NuPAGE gels (Life Technologies).

C5aR [5] = conditions: C5aR in native human tissues; literature comparison; cited from earlier work
Method: Table 1 Binding parameters of cell‐free synthesized radioligands | column: Literature KD [nM] || As the interaction between C5a and its receptor is mainly mediated by the disulphide bridged core region of C5a (residues 21–55, 22) and the C‐terminal region (especially Arg^74 30) the N‐terminal hexa‐histidine tag was not removed. The cell‐free synthesized ligand binds to the complement 5a receptor with a dissociation constant of 1.18 ± 0.27 nM (Fig. 4A), which corresponds to values determined by Gerard and Gerard for C5aR in native human tissues (1 nM 31, Table 1). Competition experiments with the unlabelled small molecule inverse agonist NDT 9513727 and the peptide antagonist H2N‐ChaW resu ...

[6] = with DsbA and reduced glutathione (GSH) replacing DTT

In the case of `CCCCn1c(-c2ccccc2)nc(-c2ccccc2)c1CN(Cc1ccc2c(c1)OCO2)Cc1ccc2c(c1)OCO2` [NDT 9513727, N,N‐Bis(1,3‐benzodioxol‐5‐ylmethyl)‐1‐butyl‐2,4‐diphenyl‐1H‐imidazole‐5‐methanamine], the Ki [1] is given as 169 nM and 54.5 nM and the IC50 (C5aR [2]) is given as 11.6 ± 1 nM.

In the case of ^125I‐ET‐1: ^125I‐labelled endothelin‐1, the Kd [3] is given as 0.33 nM.

With `CC[C@H](C)[C@H](NC(=O)[C@H](CC(=O)O)NC(=O)[C@H](CC(C)C)NC(=O)[C@H](Cc1cnc[nH]1)NC(=O)[C@@H]1CSSC[C@H](N)C(=O)N[C@@H](CO)C(=O)N[C@H]2CSSC[C@H](NC(=O)[C@H](CCC(=O)O)NC(=O)[C@H](CCCCN)NC(=O)[C@H](CC(=O)O)NC(=O)[C@H](CCSC)NC(=O)[C@H](CC(C)C)NC(=O)[C@H](CO)NC(=O)[C@H](CO)NC2=O)C(=O)N[C@@H](C(C)C)C(=O)N[C@@H](Cc2ccc(O)cc2)C(=O)N[C@@H](Cc2ccccc2)C(=O)N1)C(=O)N[C@H](C(=O)N[C@@H](Cc1c[nH]c2ccccc12)C(=O)O)[C@@H](C)CC` [Endothelin‐1, reference compound] the “Solubility/precipitation of cell‐free product” value ([4]; reducing conditions (DTT), without DsbA, listed as ET‐1) was “strong precipitation; also recorded: heavy precipitation” and the “Solubility/precipitation of cell‐free product” value [4, 6] was “did not display any precipitates”.

B1: C5a^CF: cell‐free‐synthesized complement 5a containing the N‐terminal 6xHis tag and TEV cleavage site (protein, UniProt P01031 678-751, looked up)
C5a anaphylatoxin: TLQKKIEEIAAKYKHSVVKKCCYDGACVNNDETCEQRAARISLGPRCIKAFTECCVVASQLRANISHKDMQLGR
modifications: C5a anaphylatoxin N-terminal 6xHis tag and TEV site
notes: cell‐free‐synthesized complement 5a containing the N‐terminal 6xHis tag and TEV cleavage site
For B1, the “Solubility/precipitation of cell‐free product” value ([4]; reducing conditions (DTT), without DsbA) was “strong precipitation; also recorded: insoluble and can only be detected in the pellet fraction; also recorded: heavy precipitation” and the “Solubility/precipitation of cell‐free product” value [4, 6] was “did not display any precipitates; also recorded: can be detected in the soluble fraction”.

B2: ^125I‐C5a: commercially available ^125I‐C5a (protein, UniProt P01031 678-751, looked up)
C5a anaphylatoxin: TLQKKIEEIAAKYKHSVVKKCCYDGACVNNDETCEQRAARISLGPRCIKAFTECCVVASQLRANISHKDMQLGR
modifications: C5a anaphylatoxin 125I-labelled
notes: commercially available ^125I‐C5a
In the case of B2, the Kd (C5aR [5]) is listed as 1 nM.
